Laboratory results as given in patent US20260131016A1, “NOVEL AURISTATIN ANALOGS AND IMMUNOCONJUGATES THEREOF” (ADCENTRX THERAPEUTICS INC., priority 2021, published 2026).

Legend:
[1] = test system: HCC1954 breast ductal carcinoma; test: Cell viability (Cell Titer Glo 2.0) in HCC1954, 120 hours; assay type: cell-based; conditions: for IC50: Homo sapiens, HCC1954, 120 h, read-out: IC50 (nM), in vitro potency in HCC1954
Experimental: (§1) HCC1954 breast ductal carcinoma and T47D cells (ATCC, Manassas, VA, USA) were seeded into 384-well white-walled culture plates and allowed to adhere for 2-4 hours. Cells were then treated at least in duplicate by addition of 5-fold serially diluted test articles prepared at 2× final concentration and incubated at 37° C. for 120 hours. Cell viability following treatment was determined by Cell Titer Glo 2.0 Assay (Promega, Madison, WI, USA) and normalized to non-treated controls. Dose-response relationships were analyzed using GraphPad Prism (La Jolla, CA, USA), and IC50 values were derived from non-linear regression analyses using a 4-parameter logistic equation.

T47D cells = test: Cell viability (Cell Titer Glo 2.0) in T47D cells, 120 hours; assay type: cell-based
Experimental: as §1

[2] = N-methylated analogs 1,2-/1,3-/1,4-NH2, relative to the 1,3-NH2 analog (=1)
[3] = NCH3-amide compared to its NH-amide analog (=1)

Row | Compound | potency compared to the 1,4-NH2 configuration of the P5 moiety in 19 and 26 ([1]; HCC1954 and T47D assays) | IC50 [1] [nM] | IC50 (fold difference) HCC1954 [1, 2] [fold difference] | IC50 (fold difference) T47D (T47D cells; [2]) [fold difference] | IC50 (fold difference) HCC1954 [1, 3] [fold difference] | IC50 (fold difference) T47D (T47D cells; [3]) [fold difference]
1 | CC[C@H](C)[C@@H]([C@@H](CC(=O)N1CCC[C@H]1[C@H](OC)[C@@H](C)C(=O)N(C)CCc1ccccc1N)OC)N(C)C(=O)[C@@H](NC(=O)[C@H](C)N(C)C)C(C)C [Compound 16, (S)-N-((3R,4S,5S)-1-((S)-2-((1R,2R)-3-((2-aminophenethyl)(methyl)amino)-1-methoxy-2-methyl-3-oxopropyl)pyrrolidin-1-yl)-3-methoxy-5-methyl-1-oxoheptan-4-yl)-2-((S)-2-(dimethylamino)propanamido)-N,3-dimethylbutanamide] | more potent | < 5 | 1.8 | 3.4 | – | –
2 | CC[C@H](C)[C@@H]([C@@H](CC(=O)N1CCC[C@H]1[C@H](OC)[C@@H](C)C(=O)N(C)CCc1ccc(N)cc1)OC)N(C)C(=O)[C@@H](NC(=O)[C@H](C(C)C)N(C)C)C(C)C [Compound 19, (S)-N-((3R,4S,5S)-1-((S)-2-((1R,2R)-3-((4-aminophenethyl)(methyl)amino)-1-methoxy-2-methyl-3-oxopropyl)pyrrolidin-1-yl)-3-methoxy-5-methyl-1-oxoheptan-4-yl)-2-((S)-2-(dimethylamino)-3-methylbutanamido)-N,3-dimethylbutanamide] | – | < 5 | 2.1 | 3.8 | 2.3 | 6.9
3 | CC[C@H](C)[C@@H]([C@@H](CC(=O)N1CCC[C@H]1[C@H](OC)[C@@H](C)C(=O)NCCc1cccc(N)c1)OC)N(C)C(=O)[C@@H](NC(=O)[C@H](C(C)C)N(C)C)C(C)C [Compound 20, (S)-N-((3R,4S,5S)-1-((S)-2-((1R,2R)-3-((3-aminophenethyl)amino)-1-methoxy-2-methyl-3-oxopropyl)pyrrolidin-1-yl)-3-methoxy-5-methyl-1-oxoheptan-4-yl)-2-((S)-2-(dimethylamino)-3-methylbutanamido)-N,3-dimethylbutanamide] | – | – | – | – | 1 | 1
4 | CC[C@H](C)[C@@H]([C@@H](CC(=O)N1CCC[C@H]1[C@H](OC)[C@@H](C)C(=O)NCCc1ccccc1N)OC)N(C)C(=O)[C@@H](NC(=O)[C@H](C(C)C)N(C)C)C(C)C [Compound 21, (S)-N-((3R,4S,5S)-1-((S)-2-((1R,2R)-3-((2-aminophenethyl)amino)-1-methoxy-2-methyl-3-oxopropyl)pyrrolidin-1-yl)-3-methoxy-5-methyl-1-oxoheptan-4-yl)-2-((S)-2-(dimethylamino)-3-methylbutanamido)-N,3-dimethylbutanamide] | – | – | – | – | 1 | 1
5 | CC[C@H](C)[C@@H]([C@@H](CC(=O)N1CCC[C@H]1[C@H](OC)[C@@H](C)C(=O)NCCc1ccc(N)cc1)OC)N(C)C(=O)[C@@H](NC(=O)[C@H](C(C)C)N(C)C)C(C)C [Compound 22, (S)-N-((3R,4S,5S)-1-((S)-2-((1R,2R)-3-((4-aminophenethyl)amino)-1-methoxy-2-methyl-3-oxopropyl)pyrrolidin-1-yl)-3-methoxy-5-methyl-1-oxoheptan-4-yl)-2-((S)-2-(dimethylamino)-3-methylbutanamido)-N,3-dimethylbutanamide] | – | – | – | – | 1 | 1
6 | CC[C@H](C)[C@@H]([C@@H](CC(=O)N1CCC[C@H]1[C@H](OC)[C@@H](C)C(=O)N(C)CCc1ccc(N)cc1)OC)N(C)C(=O)[C@@H](NC(=O)[C@H](C)N(C)C)C(C)C [Compound 26, (S)-N-((3R,4S,5S)-1-((S)-2-((1R,2R)-3-((4-aminophenethyl)(methyl)amino)-1-methoxy-2-methyl-3-oxopropyl)pyrrolidin-1-yl)-3-methoxy-5-methyl-1-oxoheptan-4-yl)-2-((S)-2-(dimethylamino)propanamido)-N,3-dimethylbutanamide] | – | 5 to 10 | 4.2 | 12.7 | – | –
